These results are taken from US10010547B2 (CASCADIAN THERAPEUTICS, INC., priority 2014, dated 2018).

Structures can show the parent of a compound that is named as a salt. Where two headings read alike, the source gives them in different places.

In one experiment the test system is MIA PaCa-2 cells. In words: Gemcitabine Combination Cell Assay (Cell Titer Glo). As to conditions: for IC50: Homo sapiens; for 10xLS: approximate concentration of Chk1 inhibitor that results in a 10-fold reduction in the IC50 of gemcitabine alone; for 2xLS: approximate concentration of Chk1 inhibitor that results in a two-fold reduction in the IC50 of gemcitabine alone. It counts as cell-based. The protocol: Gemcitabine Combination Cell Assay
Exponentially growing MIA PaCa-2 (ATCC CRL-1420) cells are treated with trypsin to remove cells from the plate surface. Approximately 10,000 cells/well are plated in 96 well plates in RPMI containing 10% fetal bovine serum, 1% sodium pyruvate and 1% L-GlutaMax. Cells are allowed to adhere to the plate surface overnight. Serial half-log dilutions of Chk1 inhibitor test compounds and gemcitabine are made with a final highest concentration of 3000 nM and 100 nM, respectively. Chk1 inhibitors and gemcitabine are combined so that each concentration of Chk1 inhibitor is added to each concentration of gemcitabine. Each drug is also tested as a single agent. Drugs are added to adherent cells (in duplicate) and incubated for 72 h. At 72 h the cells are treated with Promega Cell Titer Glo reagent for approximately 15 minutes. Luminescence (relative light units, RLU) is recorded using a BMG Polarstar Omega plate reader. The single agent concentration that results in a 50% reduction in total signal (IC50) is calculated using PRISM software and a four-parameter non-linear regression curve fit. For combination studies the RLUs are plotted using PRISM on an XY plot with the gemcitabine concentration on the X axis and RLU on the Y axis. The RLU for each concentration of Chk1 inhibitor is plotted as a function of gemcitabine concentration. The IC50 for gemcitabine alone and at each concentration of Chk1 is determined using a four-parameter non-linear regression curve fit. The approximate concentration of Chk1 inhibitor that results in a two and ten-fold reduction in the IC50 of gemcitabine alone is calculated as an indication of synergistic potency.
From the results obtained by following the above protocol, the IC50 values against MIAPaca-2 cells of the Chk1 inhibitor alone (Chk1 IC50), the approximate concentration of Chk1 inhibitor that results in a two-fold (2×LS) and a 10-fold (10×LS) reduction in the IC50 of gemcitabine alone of each of the compounds of Examples 1-154 are shown in Table 4.
In general terms: Cellular ATP, detected with luciferase, serves as a proxy for viable cell number.

For the next experiment, the target named is Chk-1 kinase (Homo sapiens (Human), UniProt O14757). In words: Chk-1 Kinase Inhibiting Activity (33P-ATP filter assay, CHKtide substrate). In kind it is biochemical. As to conditions: against Chk-1 kinase; read-out: IC50. As for the experimental part: Chk-1 Kinase Inhibiting Activity
Sequence of Chk-1 kinase (O14757 whole entry): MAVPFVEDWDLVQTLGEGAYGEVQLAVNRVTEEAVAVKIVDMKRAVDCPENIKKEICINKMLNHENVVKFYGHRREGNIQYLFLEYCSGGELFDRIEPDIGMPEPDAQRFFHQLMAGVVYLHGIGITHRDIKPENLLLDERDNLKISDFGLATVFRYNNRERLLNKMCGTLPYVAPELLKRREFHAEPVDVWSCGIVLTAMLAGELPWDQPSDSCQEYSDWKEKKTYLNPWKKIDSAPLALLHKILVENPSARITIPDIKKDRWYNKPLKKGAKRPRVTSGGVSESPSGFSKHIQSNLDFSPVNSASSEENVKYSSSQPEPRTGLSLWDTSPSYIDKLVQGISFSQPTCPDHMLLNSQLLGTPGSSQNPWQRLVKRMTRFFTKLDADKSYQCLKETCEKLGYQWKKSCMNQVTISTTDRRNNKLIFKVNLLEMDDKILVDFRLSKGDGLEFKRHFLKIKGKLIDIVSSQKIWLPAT
The compounds of the invention were tested for activity against Chk-1 kinase using the materials and protocols set out below.
Base Reaction buffer: 20 mM Hepes (pH 7.5), 10 mM MgCl2, 1 mM EGTA, 0.02% Brij35, 0.02 mg/ml BSA, 0.1 mM Na3VO4, 2 mM DTT, 1% DMSO
*Required cofactors are added individually to each kinase reaction
(i) Prepare indicated substrate in freshly prepared Base Reaction Buffer
(ii) Deliver any required cofactors to the substrate solution above
(iii) Deliver indicated kinase into the substrate solution and gently mix
(iv) Deliver compounds in DMSO into the kinase reaction mixture
(v) Deliver ^33P-ATP (specific activity 0.01 μCi/μl final) into the reaction mixture to initiate the reaction.
(vi) Incubate kinase reaction for 120 minutes at room temperature
(vii) Reactions are spotted onto P81 ion exchange paper (Whatman #3698-915)
(viii) Wash filters extensively in 0.1% phosphoric acid.
(ix) Dry filters and measure counts in scintillation counter
Recombinant full length construct, N-terminal GST tagged, purified from insect cells.
No special measures were taken to activate this kinase.
Final concentration in assay=0.5 nM
Peptide sequence: [[…]]
Final concentration in assay=20 μM
No additional cofactors are added to the reaction mixture
From the results obtained by following the above protocol, the IC50 values against Chk-1 kinase of each of the compounds of Examples 1-153 were determined and these are shown in Table 3.

Where [1] appears, read: MIA PaCa-2, 72 h, read-out: Chk1 IC50 (nM).
[2] abbreviates: Chk1 inhibitor alone, MIA PaCa-2 cells, 72 h, read-out: Chk1 IC50.

As a reminder, the IC50 is the concentration that inhibits the measured activity by half. Take `COc1cc(CNCc2ccccc2)ccc1-c1cc(Nc2cnc(C#N)cn2)n[nH]1` [Example 3, 5-{5-[4-(Benzylamino-methyl)-2-methoxy-phenyl]-1H-pyrazol-3-ylamino}-pyrazine-2-carbonitrile hydrochloride]: the IC50 in the experiment with MIA PaCa-2 cells (setting [1]) was 275 nM. Further, in the experiment with MIA PaCa-2 cells (MIA PaCa-2 cells, 72 h), the “10xLS” value was determined as 100 nM and the “2xLS” value was 10 nM. Besides, the IC50 at Chk-1 kinase amounted to 0.21 nM.
`CCN1CCO[C@H](c2ccc(-c3cc(Nc4cnc(C#N)cn4)n[nH]3)c(OC)c2)C1` [Example 118, 5-[[5-[2-methoxy-4-[(2R)-4-ethylmorpholin-2-yl]phenyl]-1H-pyrazol-3-yl]amino]pyrazine-2-carbonitrile]: the IC50 in the experiment with MIA PaCa-2 cells (setting [2]) came out at 1200 nM. In the experiment with MIA PaCa-2 cells (MIA PaCa-2 cells, 72 h), the “10xLS” value worked out at 300 nM and the “2xLS” value is recorded as 3 nM. Further, on Chk-1 kinase, the half-inhibitory concentration (IC50) was 0.022 nM.
For `COc1cc(CN(C)C2CCOCC2)ccc1-c1cc(Nc2cnc(C#N)cn2)n[nH]1` [Example 63, 5-[[5-[2-methoxy-4-[[methyl(tetra hydropyran-4-yl)amino]methyl]phenyl]-1H-pyrazol-3-yl]amino]pyrazine-2-carbonitrile], in that order: 600 nM, 100 nM, less than 3 nM and 0.052 nM.
For `COc1cc(CC2CCN(C(C)C)CC2)ccc1-c1cc(Nc2cnc(C#N)cn2)n[nH]1` [Example 144, 5-[[5-[4-[(1-isopropyl-4-piperidyl)methyl]-2-methoxy-phenyl]-1H-pyrazol-3-yl]amino]pyrazine-2-carbonitrile] the same measures were 829 nM, less than 300 nM, 10 nM and 0.026 nM.
For `COc1cc(C2CCCNC2)ccc1-c1cc(Nc2cnc(C#N)cn2)n[nH]1` (stereo not drawn) [Example 39, 5-[[5-[2-methoxy-4-(3-piperidyl)phenyl]-1H-pyrazol-3-yl]amino]pyrazine-2-carbonitrile] the same measures were 168 nM, 30 nM, less than 3 nM and 0.18 nM.
As to `COc1cc(N2CCN(C(C)C)CC2)cc(F)c1-c1cc(Nc2cnc(C#N)cn2)n[nH]1` [Example 137, 5-[[5-[4-(4-isopropylpiperazin-1-yl)-2-fluoro-6-methoxy-phenyl]-1H-pyrazol-3-yl]amino]pyrazine-2-carbonitrile], the IC50 in the experiment on MIA PaCa-2 cells (setting [2]) is 256 nM; on Chk-1 kinase it was 0.048 nM. The “10xLS” value in the experiment with MIA PaCa-2 cells (MIA PaCa-2 cells, 72 h) is on record as less than 100 nM. Besides, the “2xLS” value in the experiment with MIA PaCa-2 cells (MIA PaCa-2 cells, 72 h) is less than 3 nM.
For the molecule `CCN1CCC(c2ccc(-c3cc(Nc4cnc(C#N)cn4)n[nH]3)c(OC)c2)CC1` [Example 60, 5-[[5-[4-(1-ethyl-4-piperidyl)-2-methoxy-phenyl]-1H-pyrazol-3-yl]amino]pyrazine-2-carbonitrile hydrochloride], the IC50 in the experiment with MIA PaCa-2 cells (setting [1]) turned out to be 329 nM. In the experiment with MIA PaCa-2 cells (MIA PaCa-2 cells, 72 h), the “10xLS” value came out at 100 nM and the “2xLS” value was found to be 3 nM. Besides, on Chk-1 kinase, the IC50 turned out to be 0.1 nM.
As for `COc1cc(N2CCOCC2)ccc1-c1cc(Nc2cnc(C#N)cn2)n[nH]1` [Example 79, 5-[[5-(2-methoxy-4-morpholino-phenyl)-1H-pyrazol-3-yl]amino]pyrazine-2-carbonitrile], the half-inhibitory concentration (IC50) with MIA PaCa-2 cells (setting [2]) came out at 478 nM. In the experiment on MIA PaCa-2 cells (MIA PaCa-2 cells, 72 h), the “10xLS” value turned out to be 100 nM and the “2xLS” value stood at 3 nM. The IC50 on Chk-1 kinase amounted to 0.4 nM.
For `COc1cc(CN[C@@H](C)c2ccc(F)cc2)ccc1-c1cc(Nc2cnc(C#N)cn2)n[nH]1` [Example 6, 5-[5-(4-{[(S)-1-(4-fluoro-phenyl)-ethylamino]-methyl}-2-methoxy-phenyl)-1H-pyrazol-3-ylamino]-pyrazine-2-carbonitrile], in that order: 338 nM, 300 nM, 30 nM and 0.097 nM.
